{"source": "patent US20230098254A1", "about": "“SCUTELLARIAE RADIX COMPOUNDS AND USE THEREOF FOR INHIBITING OXIDATIVE PHOSPHORYLATION PATHWAY OF MITOCHONDRIA” (priority 2020, published 2023)", "key": {"Daoy cell [1]": {"test_system": "Daoy cell", "assay": "Mitochondria membrane potential difference by TMRM, Daoy cell", "format": "cell-based, human", "source_text": "(§1) For cells with active mitochondria permeability transition pore, adding peroxide (such as H2O2) could increase the activity of mitochondria permeability transition pore, resulting in a decrease in mitochondria membrane potential.\n(§2) The mitochondria membrane potential difference was detected by Tetramethylrhodamine (TMRM), the high fluorescence intensity of TMRM represented the high membrane potential difference."}, "NCI-H82 cell [2]": {"test_system": "NCI-H82 cell", "assay": "Mitochondria membrane potential difference by TMRM, NCI-H82 cell", "format": "cell-based", "source_text": "as §1, §2"}, "[3]": {"test_system": "oxidative phosphorylation pathway of mitochondria", "assay": "Cellular oxygen consumption (OCR), XFe metabolic analysis system", "format": "cell-based", "settings": "NCI-H82 cell; 118.2 μM; within half an hour; FIG. 1", "method": "The oxygen required by cell was mainly consumed in the mitochondria respiratory chain, so the measurement of cellular oxygen consumption (OCR, oxygen consumption rate) could directly reflect the activity of the oxidative phosphorylation pathway of mitochondria. In this experiment, the XFe metabolic analysis system was used to measure the oxygen consumption of NCI-H82 cell in the presence or absence of Compound SJ2858 (baicalein) and Compound SJ2775 (baicalin).\nRotenone (abbreviated as RO, 0.5 μM) is a known inhibitor of mitochondria oxidative phosphorylation pathway complex I, Antimycin A (abbreviated as AA, 0.5 μM) is a known inhibitor of mitochondria oxidative phosphorylation pathway complex III. Compound SJ2858, 73.2 μM; Compound SJ2775, 118.2 μM."}, "Daoy cell [4]": {"test_system": "Daoy cell", "assay": "Cell viability, Promega CellTiter-Glo, Daoy cell", "format": "cell-based, human", "settings": "read-out: IC50 of cell viability inhibition", "method": "(§3) Cell viability was detected by using the Promega CellTiter-Glo kit, the kit reflected cell viability by directly measuring intracellular ATP content. […] Daoy cell and NCI-H82 cell were cultured in DMEM containing 10% FBS (plus p/s)."}, "NCI-H82 cell [5]": {"test_system": "NCI-H82 cell", "assay": "Cell viability, Promega CellTiter-Glo, NCI-H82 cell", "format": "cell-based", "settings": "NCI-H82 cell without CSA (inactive mPTP); read-out: IC50 of cell viability inhibition", "method": "as §3"}}, "note": "Read-outs that look alike come from different tables or passages of the source.", "data": [{"compound": "OO", "note": "[Compound H2O2, H2O2]", "values": [{"measurement": "Effect on membrane potential (in words)", "setting": "Daoy cell [1]", "result": "down-regulated"}, {"measurement": "Relative TMRM signal intensity (%), mean value", "setting": "Daoy cell [1]; H2O2 +, CsA −", "result": 82, "unit": "%"}, {"measurement": "Effect on membrane potential (in words)", "setting": "NCI-H82 cell [2]", "result": "not affected"}, {"measurement": "Relative TMRM signal intensity (%), mean value", "setting": "NCI-H82 cell [2]; H2O2 +, CsA −", "result": 119, "unit": "%"}]}, {"compound": "O=C(O)[C@H]1O[C@@H](Oc2cc3oc(-c4ccccc4)cc(=O)c3c(O)c2O)[C@H](O)[C@@H](O)[C@@H]1O", "note": "[Compound SJ2775, baicalin]", "values": [{"measurement": "Inhibition of oxygen consumption (in words)", "setting": "[3]", "result": "significantly inhibit"}, {"measurement": "IC50", "setting": "Daoy cell [4]; Daoy cell with CSA (1.5 μM mPTP inhibitor)", "result": 45.4, "unit": "µM"}, {"measurement": "IC50", "setting": "Daoy cell [4]; Daoy cell without CSA (active mPTP)", "result": "> 100", "unit": "µM"}, {"measurement": "IC50", "setting": "NCI-H82 cell [5]", "result": 38.6, "unit": "µM"}]}]}
